From PubChem BioAssay (NCI)
Values joined by “and” are separate entries in the source; they are usually repeats but may differ in a detail not shown here. Equal values may be shown once.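 Step 1: Grow cells in 96-well plates. Step 2: Expose to compound for 48 hours at 5 concentrations. Step 3: Interpolate endpoints linearly; if unreached, use highest concentration. TGI is the concentration that stops growth completely.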

Columns and labels:
Test in all cases: inhibition of tumour cell growth, NCI panel, 48 h
HT29 colon = system: HT29 colon
MDA-N = system: MDA-N
MDA-MB-435 = system: MDA-MB-435
SK-OV-3 ovarian = system: SK-OV-3 ovarian
KM12 colon = system: KM12 colon
SNB-19 CNS = system: SNB-19 CNS
UACC-257 melanoma = system: UACC-257 melanoma
NCI-H460 lung = system: NCI-H460 lung
HCC-2998 colon = system: HCC-2998 colon
RXF 393 renal = system: RXF 393 renal

SMILES	TGI (HT29 colon)	TGI (MDA-N)	TGI (MDA-MB-435)	TGI (SK-OV-3 ovarian)	TGI (KM12 colon)	TGI (SNB-19 CNS)	TGI (UACC-257 melanoma)	TGI (NCI-H460 lung)	TGI (HCC-2998 colon)	TGI (RXF 393 renal)
CCOC(=O)/C=C1\Nc2ccccc2C12CCc1c([nH]c3ccccc13)C2C(=O)OCC (centres undefined)	> 100 µM	81 µM	40.5 µM	> 100 µM	> 100 µM	> 100 µM	> 100 µM	> 100 µM	> 100 µM	> 100 µM
CC(=O)N[C@@H](Cc1ccc(O)cn1)C(=O)NCc1ccc2c(c1)OCO2	> 100 µM	> 100 µM	> 100 µM	> 100 µM	> 100 µM	> 100 µM	> 100 µM	> 100 µM	> 100 µM	> 100 µM
CCCCCCCCCCCCCCCCOCC(CC(F)(F)P(=O)(O)O)OC(C)=O (centres undefined)	> 50 µM	> 50 µM	> 50 µM	> 50 µM	> 50 µM	> 50 µM	> 50 µM	> 50 µM	> 50 µM	–
CC1CN=C(c2cccc(OCc3ccc(COc4cccc(C5=NCC(C)N5)c4)cc3)c2)N1 (centres undefined)	> 100 µM	> 100 µM	> 100 µM	> 100 µM	81.7 µM	> 100 µM	44.8 µM	78.5 µM	48.4 µM	> 100 µM
COc1ccc(C2CC(c3c(C)nn(-c4ccccc4)c3-c3ccc(C)cc3O)=NN2c2ccccc2)cc1 (centres undefined)	> 44 µM	> 100 µM	> 100 µM	> 100 µM	> 43.7 µM	> 100 µM	> 100 µM	> 41.7 µM	> 100 µM	> 100 µM
Brc1ccc(N2C[N+](c3ccc(Br)cc3)=NC(c3ccccc3)=N2)cc1	27.8 µM and > 100 µM	–	–	34.3 µM and > 100 µM	28.1 µM and > 100 µM	32.6 µM and > 100 µM	31.3 µM and > 100 µM	29.5 µM and > 100 µM	28.7 µM and > 100 µM	37.7 µM and > 100 µM
CCCCc1ccc2[n+](c1)C(C(=O)OCC)=PC2 (centres undefined)	> 100 µM	> 100 µM	> 100 µM	> 100 µM	> 100 µM	–	> 100 µM	> 100 µM	> 100 µM	> 100 µM
O=c1c(Cc2ccc(Cl)cc2)nnc2sc(-c3ccc([N+](=O)[O-])cc3)nn12	> 100 µM	> 100 µM	58.5 µM	> 100 µM	> 100 µM	> 100 µM	39.5 µM	44.1 µM	42.6 µM	74.1 µM
O=C1c2ccccc2NC2C(O)c3ccccc3N12 (centres undefined)	> 100 µM	–	31.9 µM	> 100 µM	> 100 µM	> 100 µM	37.7 µM	55.7 µM	> 100 µM	> 100 µM
O=C(c1cccs1)N(C(=S)N1CCN(c2ccccc2)CC1)c1ccccc1	> 100 µM	–	–	> 100 µM	> 100 µM	> 100 µM	> 100 µM	> 100 µM	–	> 100 µM
Oc1c2cccc1Cc1cccc3c1OCCOCCOCCOCCOc1c(cccc1Cc1cccc(c1O)C3)C2	> 100 µM	–	> 100 µM	> 100 µM	> 100 µM	> 100 µM	> 100 µM	–	> 100 µM	> 100 µM
O=C1CSC2(CC(/C=C/C=C/c3ccccc3)=NN2c2cccc(S(=O)(=O)O)c2)N1c1nc2ccccc2s1 (centres undefined)	> 100 µM	> 100 µM	55.6 µM	–	> 100 µM	> 100 µM	> 100 µM	> 100 µM	> 100 µM	> 100 µM
Oc1ccc(-c2c3c(nc4c2CCc2ccc(Br)cc2-4)-c2cc(Br)ccc2CC3)cc1	–	40.7 µM	45 µM	30.6 µM	42.5 µM	46.9 µM	69.4 µM	53.2 µM	40.1 µM	–
COc1cc(C2SCC(=O)N2NC(=O)c2ccc(NC(C)=O)cc2)cc(OC)c1OC (centres undefined)	> 100 µM	–	> 100 µM	> 100 µM	> 100 µM	> 100 µM	> 100 µM	> 100 µM	> 100 µM	> 100 µM
O=[N+]([O-])c1ccc2nc3ccc([N+](=O)[O-])cn3c2c1	> 100 µM	> 100 µM	> 100 µM	> 100 µM	> 100 µM	> 100 µM	> 100 µM	> 100 µM	–	> 100 µM
COc1ccc(C(=O)Cc2cc(OC)ccc2OC)cc1	> 100 µM	–	–	> 100 µM	–	> 100 µM	> 100 µM	> 100 µM	> 100 µM	> 100 µM
COc1cc(C(=O)Nc2nnc(S(N)(=O)=O)s2)cc(OC)c1OC	–	> 100 µM	> 100 µM	> 100 µM	> 100 µM	> 100 µM	> 100 µM	> 100 µM	> 100 µM	> 100 µM
O=CNc1cccc2c3c([nH]c12)CCCCCC3	> 100 µM	–	–	> 100 µM	> 100 µM	> 100 µM	> 100 µM	> 100 µM	> 100 µM	> 100 µM
Cc1cc(S(=O)(=O)Nc2n[nH]c(Nc3ccccc3)n2)c(S)cc1Cl	> 10 µM	–	> 10 µM	> 10 µM	> 10 µM	> 10 µM	> 10 µM	> 10 µM	> 10 µM	> 10 µM
COc1ccc(/C=N/Nc2[nH]c(=S)nc3[nH]ncc23)cc1	> 100 µM	–	> 100 µM	> 100 µM	> 100 µM	59.2 µM	> 100 µM	> 100 µM	> 100 µM	> 100 µM
C=C[C@]1(C)CC[C@]2(C)C(CC[C@@]3(C)C2C[C@H](O)[C@H](O)[C@@]3(C)O)C1 (some centres undefined)	> 100 µM	> 100 µM	> 100 µM	> 100 µM	> 100 µM	> 100 µM	> 100 µM	> 100 µM	> 100 µM	–
O=C1NC(=O)/C(=C\c2ccncc2)N1	> 100 µM	> 100 µM	> 100 µM	> 100 µM	> 100 µM	> 100 µM	> 100 µM	> 100 µM	> 100 µM	–
O=C1/C(=C/c2ccccc2S)N=C(c2ccccc2)N1c1ccc2c(c1)Sc1cc(N3C(=O)/C(=C/c4ccccc4S)N=C3c3ccccc3)ccc1N2	> 100 µM	51.3 µM	48.9 µM	33.8 µM	> 100 µM	30.4 µM	42.3 µM	63.7 µM	37.1 µM	–
